Data published in patent US9624241B2 (Incyte Corporation, priority 2013, dated 2017).
Read-outs that look alike come from different tables or passages of the source.

Experiments:
[1] = molecular target: BRD4-BD1 (Homo sapiens (Human), UniProt O60885); assay: BRD4 AlphaScreen Assay (Example A2), BRD4-BD1; format: binding
Method: (§1) BRD4-BD1 and BRD4-BD2 assays were conducted in white 384-well polystyrene plate in a final volume of 40 μL for BD1 and 60 μL for BD2. Inhibitors were first serially diluted in DMSO and added to the plate wells before the addition of other reaction components. […] The assays were carried out at room temperature in the assay buffer (50 mM Tris-HCl, pH 7.5, 0.01% Tween-20, 0.01% BSA, 5 mM DTT), containing 50 nM Biotin-labeled tetra-acetylated histone H4 peptide (H4Ac4) and BRD4-BD1 or BRD4-BD2 protein at concentration less than 1 nM. […] After plate sealing, the plate was incubated in the dark at room temperature for 75 min. before reading on a PHERAstar FS plate reader (BMG Labtech). IC50 determination was performed by fitting the curve of percent control activity versus the log of the inhibitor concentration using the GraphPad Prism 5.0 software.

[2] = molecular target: BRD4-BD2 (Homo sapiens (Human), UniProt O60885); assay: BRD4 AlphaScreen Assay (Example A2), BRD4-BD2; format: binding
Method: as §1

[3] = Assay A2, AlphaScreen, BRD4-BD1, read-out: BRD4 BD-1 enzyme IC50
[4] = Assay A2, AlphaScreen, BRD4-BD2, read-out: BRD4 BD-2 enzyme IC50

SMILES | IC50 [1, 3] [µM] | IC50 [2, 4] [µM] | IC50 [1] [µM] | IC50 [2] [µM]
Cc1noc(C)c1-c1ccc2nc(C3CCN(S(C)(=O)=O)C3)n3c2c1OC[C@@H]3c1ccccn1 (mixture of isomers) [Example 115, (4S)-7-(3,5-dimethylisoxazol-4-yl)-2-[1-(methylsulfonyl)pyrrolidin-3-yl]-4-pyridin-2-yl-4,5-dihydroimidazo[1,5,4-de][1,4]benzoxazine (mixture of diastereomers)] | < 0.1 | < 0.1 | – | –
CC(=O)N1CCCC(c2nc3ccc(-c4c(C)noc4C)c4c3n2[C@@H](c2ccccn2)CO4)C1 (mixture of isomers) [Example 117, (4S)-2-(1-acetylpiperidin-3-yl)-7-(3,5-dimethylisoxazol-4-yl)-4-pyridin-2-yl-4,5-dihydroimidazo[1,5,4-de][1,4]benzoxazine (mixture of diastereomers)] | < 0.1 | < 0.1 | – | –
Cc1noc(C)c1-c1ccc2nc(C3CCCN(C(=O)C4CC4)C3)n3c2c1OC[C@@H]3c1ccccn1 (mixture of isomers) [Example 118, (4S)-2-[1-(cyclopropylcarbonyl)piperidin-3-yl]-7-(3,5-dimethylisoxazol-4-yl)-4-pyridin-2-yl-4,5-dihydroimidazo[1,5,4-de][1,4]benzoxazine (mixture of diastereomers)] | < 0.1 | < 0.1 | – | –
Cc1noc(C)c1-c1ccc2nc(C3CCCN(S(C)(=O)=O)C3)n3c2c1OC[C@@H]3c1ccccn1 (mixture of isomers) [Example 119, (4S)-7-(3,5-dimethylisoxazol-4-yl)-2-[1-(methylsulfonyl)piperidin-3-yl]-4-pyridin-2-yl-4,5-dihydroimidazo[1,5,4-de][1,4]benzoxazine (mixture of diastereomers)] | < 0.1 | < 0.1 | – | –
Cc1noc(C)c1-c1ccc2c3c1CCC(c1ccccc1)n3c(=O)n2C (racemic) [Example 121, 7-(3,5-Dimethylisoxazol-4-yl)-1-methyl-4-phenyl-5,6-dihydro-4H-imidazo[4,5,1-ij]quinolin-2(1H)-one] | 0.1 to 1 | < 0.1 | – | –
Cc1noc(CO)c1-c1ccc2[nH]c(=O)n3c2c1OCC3c1ccccn1 (racemic) [Example 124, 7-[5-(Hydroxymethyl)-3-methylisoxazol-4-yl]-4-pyridin-2-yl-4,5-dihydroimidazo[1,5,4-de][1,4]benzoxazin-2(1H)-one] | 1 to 10 | 0.1 to 1 | – | –
Cc1noc(C)c1-c1ccc2[nH]c(=O)n3c2c1OCC3c1cccnc1C#N (racemic) [Example 126, 3-[7-(3,5-Dimethylisoxazol-4-yl)-2-oxo-1,2,4,5-tetrahydroimidazo[1,5,4-de][1,4]benzoxazin-4-yl]pyridine-2-carbonitrile] | 0.1 to 1 | < 0.1 | – | –
COC(=O)c1ncccc1C1COc2c(-c3c(C)noc3C)ccc3[nH]c(=O)n1c23 (racemic) [Example 132, Methyl 3-[7-(3,5-dimethylisoxazol-4-yl)-2-oxo-1,2,4,5-tetrahydroimidazo[1,5,4-de][1,4]benzoxazin-4-yl]pyridine-2-carboxylate] | < 0.1 | < 0.1 | – | –
Cc1noc(C)c1-c1ccc2[nH]c(=O)n3c2c1OC(C(=O)NCCO)C3c1ccccc1 (single isomer, unassigned) [Example 48A, 7-(3,5-Dimethylisoxazol-4-yl)-N-(2-hydroxyethyl)-2-oxo-4-phenyl-1,2,4,5-tetrahydroimidazo[1,5,4-de][1,4]benzoxazine-5-carboxamide] | 0.1 to 1 | < 0.1 | – | –
Cc1noc(C)c1-c1ccc2[nH]c(=O)n3c2c1OC(C(=O)NCCO)C3c1ccccc1 (single isomer, unassigned) [Example 48B, 7-(3,5-Dimethylisoxazol-4-yl)-N-(2-hydroxyethyl)-2-oxo-4-phenyl-1,2,4,5-tetrahydroimidazo[1,5,4-de][1,4]benzoxazine-5-carboxamide] | 0.1 to 1 | < 0.1 | – | –
Cc1noc(C)c1-c1ccc2[nH]c(=O)n3c2c1OC(C)(C)C3c1ccccn1 (single isomer, unassigned) [Example 61A, 7-(3,5-Dimethylisoxazol-4-yl)-5,5-dimethyl-4-pyridin-2-yl-4,5-dihydroimidazo[1,5,4-de][1,4]benzoxazin-2(1H)-one] | < 0.1 | < 0.1 | – | –
Cc1noc(C)c1-c1ccc2[nH]c(=O)n3c2c1OCC3C1CCCCN1 (single isomer, unassigned) [Example 63A, 7-(3,5-Dimethylisoxazol-4-yl)-4-piperidin-2-yl-4,5-dihydroimidazo[1,5,4-de][1,4]benzoxazin-2(1H)-one 2,2,2-trifluoroacetate] | – | – | 0.1 to 1 | 0.1 to 1
Cc1noc(C)c1-c1ccc2[nH]c(=O)n3c2c1OCC3c1cccnc1C(=O)NC1CC1 (single isomer, unassigned) [Example 134, N-Cyclopropyl-3-[7-(3,5-dimethylisoxazol-4-yl)-2-oxo-1,2,4,5-tetrahydroimidazo[1,5,4-de][1,4]benzoxazin-4-yl]pyridine-2-carboxamide] | < 0.1 | < 0.1 | – | –
Cc1noc(C)c1-c1ccc2nc(N3CCC(NC(=O)C(C)C)CC3)n3c2c1OCC3c1ccccn1 (stereo not drawn) [Example 244] | – | < 0.1 | – | –

The next lines start with results.

IC50 [1, 3] [µM] | IC50 [2, 4] [µM] | SMILES | IC50 [1] [µM] | IC50 [2] [µM]
< 0.1 | < 0.1 | Cc1noc(C)c1-c1ccc2[nH]c(=O)n3c2c1OC(CO)C3c1ccccn1 (single isomer, unassigned) [Example 62B, 7-(3,5-Dimethylisoxazol-4-yl)-5-(hydroxymethyl)-4-pyridin-2-yl-4,5-dihydroimidazo[1,5,4-de][1,4]benzoxazin-2(1H)-one] | – | –
0.1 to 1 | < 0.1 | Cc1noc(C)c1-c1cc(C(C)O)c2[nH]c(=O)n3c2c1OC[C@@H]3c1ccccn1 (single isomer, unassigned) [Example 144A] | – | –
0.1 to 1 | < 0.1 | Cc1noc(C)c1-c1cc(C(C)O)c2[nH]c(=O)n3c2c1OC[C@@H]3c1ccccn1 (single isomer, unassigned) [Example 144B] | – | –
1 to 10 | 0.1 to 1 | Cc1noc(C)c1-c1ccc2nc(N3CC(O)C3)n3c2c1OCC3c1cccnc1 (single isomer, unassigned) [Example 160A, 1-[7-(3,5-Dimethylisoxazol-4-yl)-4-pyridin-3-yl-4,5-dihydroimidazo[1,5,4-de][1,4]benzoxazin-2-yl]azetidin-3-ol] | – | –
1 to 10 | 1 to 10 | Cc1noc(C)c1-c1ccc2nc(N3CC(O)C3)n3c2c1OCC3c1cccnc1 (single isomer, unassigned) [Example 160B, 1-[7-(3,5-Dimethylisoxazol-4-yl)-4-pyridin-3-yl-4,5-dihydroimidazo[1,5,4-de][1,4]benzoxazin-2-yl]azetidin-3-ol] | – | –
1 to 10 | 1 to 10 | Cc1noc(C)c1-c1ccc2nc(N3CC(O)C3)n3c2c1OCC3c1cccnc1 (single isomer, unassigned) [Example 160C, 1-[7-(3,5-Dimethylisoxazol-4-yl)-4-pyridin-3-yl-4,5-dihydroimidazo[1,5,4-de][1,4]benzoxazin-2-yl]azetidin-3-ol] | – | –
1 to 10 | 1 to 10 | Cc1noc(C)c1-c1ccc2nc(N3CC(O)C3)n3c2c1OCC3c1cccnc1 (single isomer, unassigned) [Example 160D, 1-[7-(3,5-Dimethylisoxazol-4-yl)-4-pyridin-3-yl-4,5-dihydroimidazo[1,5,4-de][1,4]benzoxazin-2-yl]azetidin-3-ol] | – | –
0.1 to 1 | < 0.1 | Cc1noc(C)c1-c1cc(Cl)c2[nH]c(=O)n3c2c1OCC3c1ccccn1 (single isomer, unassigned) [Example 266A, 9-chloro-7-(3,5-dimethylisoxazol-4-yl)-4-pyridin-2-yl-4,5-dihydroimidazo[1,5,4-de][1,4]benzoxazin-2(1H)-one] | – | –
1 to 10 | 0.1 to 1 | Cc1noc(C)c1-c1cc(Cl)c2[nH]c(=O)n3c2c1OCC3c1ccccn1 (single isomer, unassigned) [Example 266B, 9-chloro-7-(3,5-dimethylisoxazol-4-yl)-4-pyridin-2-yl-4,5-dihydroimidazo[1,5,4-de][1,4]benzoxazin-2(1H)-one] | – | –
1 to 10 | 1 to 10 | Cc1noc(C)c1-c1cc(Br)c2[nH]c(=O)n3c2c1OCC3c1ccccn1 (single isomer, unassigned) [Example 267A, 9-bromo-7-(3,5-dimethylisoxazol-4-yl)-4-pyridin-2-yl-4,5-dihydroimidazo[1,5,4-de][1,4]benzoxazin-2(1H)-one] | – | –
< 0.1 | < 0.1 | Cc1noc(C)c1-c1cc(Br)c2[nH]c(=O)n3c2c1OCC3c1ccccn1 (single isomer, unassigned) [Example 267B, 9-bromo-7-(3,5-dimethylisoxazol-4-yl)-4-pyridin-2-yl-4,5-dihydroimidazo[1,5,4-de][1,4]benzoxazin-2(1H)-one] | – | –
< 0.1 | < 0.1 | Cc1noc(C)c1-c1ccc2nc(C3CCN(C(=O)OC(C)(C)C)C3)n3c2c1OC[C@@H]3c1ccccn1 (single isomer, unassigned; diastereoisomer 1) [Example 101A] | – | –
< 0.1 | < 0.1 | Cc1noc(C)c1-c1ccc2nc(C3CCN(C(=O)OC(C)(C)C)C3)n3c2c1OC[C@@H]3c1ccccn1 (single isomer, unassigned; diastereoisomer 2) [Example 101B] | – | –
< 0.1 | – | Cc1noc(C)c1-c1ccc2nc(C3CCN(C(=O)C4CC4)C3)n3c2c1OC[C@@H]3c1ccccn1 (single isomer, unassigned; diastereomer 2) [Example 114B] | – | –
